Key:
NCI-1944 = assay: CellTiter-Glo cell proliferation inhibition, NCI-1944; assay type: cell-based; settings: NCI-1944 (lung cancer cell line), 72 hours; read-out: Example IC50 (µM) NCI-1944
Text: (§1) This experiment used the CellTiter-Glo® Luminescent Cell Viability Assay kit from Promega to evaluate the inhibitory activity of the disclosed compounds on the proliferation of the following cell lines: 4T1 (mouse breast cancer cell line), A20 (mouse B-cell lymphoma cell line), A2780 (human ovarian cancer cell line), AsPC-1 (pancreatic cancer cell line), B16F10 (mouse melanoma cell line), BT549 (human breast cancer cell line), CT26 (mouse colon cancer cell line), EMT6 (mouse breast cancer cell line), HCT116 (colorectal cancer cell line), Jurket (acute leukemia cell line), KP-4 (pancreatic cancer cell line), LL/2 (mouse lung cancer cell line), MCF7 (breast cancer cell line), […] NCI-H358 (lung cancer cell line), NCI-H727 (gastric cancer cell line), NCI-1944 (lung cancer cell line), Pan 04.03 (pancreatic cancer cell line), SK-BR-3 (breast cancer cell line), THP-1 (leukemia cell line), TOV21G (ovarian cancer cell line), U87MG (glioblastoma cell line), and UM-UC-a (bladder cancer cell line). […]
(§2) Cells were cultured according to the instructions provided by the cell supplier (Nanjing Kebai Biotechnology Co., Ltd.). […] Suspension or adherent cells were collected, and cell viability was determined using the trypan blue exclusion method, ensuring that cell viability was above 90%. […]

MKN45 = assay: CellTiter-Glo cell proliferation inhibition, MKN45; assay type: cell-based; settings: MKN-45; MKN45 (mouse B-cell lymphoma cell line), 72 hours; read-out: Example IC50 (µM) MKN45
Text: as §1, §2

EMT6 = assay: CellTiter-Glo cell proliferation inhibition, EMT6; assay type: cell-based; settings: EMT6 (mouse breast cancer cell line), 72 hours; read-out: Example IC50 (µM) EMT6
Text: as §1, §2

NCI-H727 = assay: CellTiter-Glo cell proliferation inhibition, NCI-H727; assay type: cell-based; settings: Homo sapiens; […]; read-out: Example IC50 (µM) NCI-H727
Text: as §1, §2

[1] = J. Med. Chem. 2014, 57, 6594-6609; read-out: cellular activity IC50; cited from earlier work
[2] = J. Med. Chem. 2014, 57, 6594-6609; cited from earlier work

IC50 (MKN45) | IC50 (NCI-H727) | Structure (SMILES) | IC50 (NCI-1944) | IC50 (EMT6) | IC50 [1] | oral bioavailability [2]
0.326 µM | 0.225 µM | O=C(Nc1ccc(-c2csc(CO)c2)cc1)C(=O)Nc1ccc(-c2cc3cc(F)c(-c4nnn[nH]4)cc3n2C2CCC2)cc1 [Example 1] | 0.112 µM | 0.131 µM |  | 
 |  | Cn1c(-c2cccc(NC(=O)C(=O)Nc3ccc(-c4ccsc4)cc3)c2)c(I)c2cc(C(=O)O)c(O)cc21 [Example 11a-1, reference compound] |  |  | ≥ 1000 nM | 0.07%

— patent EP4741383A1, “COMPOUND AND USE THEREOF AS ANTI-CANCER DRUG” (Tyligand Bioscience (Shanghai) Limited, priority 2023, dated 2025)
